# Reference: patent US10357477B2, “Anticancer compounds” (REGENTS OF THE UNIVERSITY OF MINNESOTA, priority 2016, dated 2019)
# Columns and labels:
# MIA PaCa-2 cells = test: Cell viability assay (MTT) in MIA PaCa-2 cells; format: cell-based; details: Homo sapiens, antiproliferative activity, 72 h
# How it was run: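 MIA PaCa-2 cells exposed 72 h at 37° C to 2-fold serial compound dilutions from 100 μM final, 0.5% DMSO, in triplicate. Viability by MTT (3 h), formazan read at 570 nm minus 650 nm; EC50 from curve fit.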
# [1] = Caco-2 permeability assay; format: in vitro ADME; details: human, pH 7.4; for Papp A→B at 80 min: apical to basolateral; for Papp B→A at 80 min: basolateral to apical
# Protocol: Cell Culture. The human colon adenocarcinoma cell line Caco-2 was purchased from ATCC (American Type Culture Collection, Manassas, Va.), and was cultured in a humidified atmosphere of 5% CO2 at 37° C. Caco-2 cells were cultured in DMEM with 10% FBS, 1% NEAA, 1% GlutaMax and 1% penicillin and streptomycin solution. The culture medium was changed every other day during cell growth and differentiation. On achieving 80-90% confluence, the cells were rinsed with pre-warm DPBS (pH 7.4) and split using trypsin. The cells were then seeded on membranes of Millipore Millicell-24 cell culture device. The transepithelial electrical resistance (TEER) were assessed to reflect membrane integrity using a Millicells® ERS-2 (Millipore, USA). The Caco-2 cell monolayers were used for transport experiments on day 21 post-seeding with TEER values >500 Ω·cm2. Bidirectional Transport Experiments. Before the transport experiments, the cell monolayer was washed three times with HBSS. Then, the plates were incubated in fresh permeability assay buffer (HBSS containing 10 mM glucose and 20 mM HEPES, pH 7.4) at 37° C. The experiments were conducted by spiking test compounds to either the apical (AP, 0.4 mL) or basolateral side (BL, 0.8 mL), while the receiving chamber contained the corresponding volume of pre-warmed permeability assay buffer. Every experiment was repeated in duplicate, and the plates were incubated in an orbital shaker at 37° C., 50 rpm/min. To assess the drug transport, at the incubation time of 20, 40, 60 and 80 min, aliquot was removed and was immediately replenished with an equal volume of permeability assay buffer. The samples were then subjected to LC/MS/MS analysis. The apparent permeability coefficient was indicated by the absorption rate constant Papp. It could be calculated as PBA (measured in BL to AP direction) or PAB (measured in AP to BL direction), using the equation of Papp=(dQ/dt)/(A×C0). dQ/dt is the rate at which the compound appears in the receiver chamber (nmol/s), A is the surface area of the filter membrane (0.7 cm2) and C0 is the initial concentration in the donor chamber (μM). Efflux ratio (ER) was calculated by the equation of ER=PBA/PAB, where PBA is the Papp value measured in BL to AP direction, and PAB is the Papp value measured in AP to BL direction.
# [2] = Microsomal stability assay, mouse liver microsomes; format: in vitro ADME; details: pH 7.4; mouse liver microsomes 0.5 mg/mL, 1 mM NADPH, 1 μM compound; read-out: Microsomal Stability t1/2 Mouse
# Protocol: (§1) The in vitro microsomal stability assay was conducted in triplicate in mouse and human liver microsomal systems. In a typical incubation, a compound (typically 1 μM final concentration) was spiked into the reaction mixture containing 0.5 mg/mL of liver microsomal protein and 1 mM of NADPH in 0.1 M potassium phosphate buffer (pH 7.4) at 37° C. At various time points, 1 volume of reaction aliquot was taken and quenched with 3 volumes of acetonitrile with an appropriate internal standard. The samples were then vortexed and centrifuged at 14,000 rpm for 5 min. The supernatants were collected and analyzed by LC-MS/MS to determine the in vitro metabolic half-life (t1/2) and intrinsic clearance (CLint). Verapamil was used as a positive control.
# (§2) Quantification and analysis of compounds in biological samples were carried out on an AB Sciex QTrap 5500 mass spectrometer coupled with an Agilent 1260 Infinity HPLC. The chromatographic separation of compounds was achieved using a Phenomenex Kinetex C18 column (50×2.1 mm, 2.6 μm), and MS/MS analysis was conducted using an ESI ion source with MRM detection. The MS/MS detection parameters including declustering potential (DP), entrance potential (EP), collision energy (CE), and collision cell exit potential (CXP) were optimized for each compound.
# [3] = Plasma stability assay, mouse plasma; format: in vitro ADME; details: 37° C.
# Protocol: (§3) The plasma stability assay was performed in triplicate by incubating a compound in normal mouse and human plasma at 37° C. At 0, 1, 3, 6, and 24 h, aliquots of the plasma mixture were taken and quenched with 3 volumes of acetonitrile containing an appropriate internal standard. The samples were then vortexed and centrifuged at 14,000 rpm for 5 min. The supernatants were collected and analyzed by LC-MS/MS to determine the remaining percentage at various time points.
# as §2
# [4] = Plasma stability assay, human plasma; format: in vitro ADME; details: 37° C.
# Protocol: as §3, §2
# [5] = Thermodynamic solubility assay; format: physicochemical; details: aqueous buffer, thermodynamic from solid, DPBS pH=7.4, 48 h, ambient temperature
# Protocol: Briefly, a saturated solution was made by adding DPBS to the solid compound. The mixture was shaken at 200 rpm for 48 h in a MaxQ 6000 orbital shaker at ambient temperature to allow equilibrium between the solid and dissolved compound. The suspension was then filtered through a 0.45 μm PVDF syringe filter and the filtrate was collected for analysis using UV spectrometry (SpectraMax M5e, Molecular Devices) at λ=240 nm.
# [6] = tested on: MCF10A cells (normal human mammary cells); test: Cell viability assay (MTT) in MCF10A cells; format: cell-based; details: MCF-10A, 72 h
# Protocol: MCF10A cells are maintained in minimum essential medium (MEM) (Invitrogen 11095) supplemented with 10% FBS (Invitrogen 16000), 1% 10× non-essential amino acids (NEAA) (Invitrogen 11140), 1% Penicillin/Streptomycin (Invitrogen 15140), 1% GlutaMAX (Invitrogen 35050-061), 20 ng/mL EGF, […] hydrocortisone, 100 ng/mL cholera toxin, 10 μg/mL insulin.
# Cells were plated in 96-well plates at 25×10^4 cells/ml. After 24 hours, compounds were added at 9, 3× dilutions in triplicate from 100 uM final concentration in the appropriate growth media. Plates were incubated for 72 hours at 37° C. in a 5% CO2/95% air humidified atmosphere after which time the media was removed and MTT was added in RPMI phenol red free media. The MTT was removed after 3 hours and formazan crystals were solubilized with 200 μL of isopropanol. Plates were read on a Molecular Devices SpectraMax i3 spectrophotometer at 570 nm for formazan and 690 nm for background subtraction. EC50 values were calculated by fitting the data in GraphPad Prism software.
# [7] = Microsomal stability assay, human liver microsomes; format: in vitro ADME; details: pH 7.4; human liver microsomes 0.5 mg/mL, 1 mM NADPH, 1 μM compound; read-out: Microsomal Stability t1/2 Human
# Protocol: as §1, §2
SMILES,EC50 (MIA PaCa-2 cells) [µM],Papp A→B at 80 min [1] [×10⁻⁶ cm/s],Papp B→A at 80 min [1] [×10⁻⁶ cm/s],half-life at 1 μM [2] [min],"Plasma Stability (% remaining, 6 h/24 h) Mouse ([3]; 6 h) [%]","Plasma Stability (% remaining, 6 h/24 h) Mouse ([3]; 24 h)","Plasma Stability (% remaining, 6 h/24 h) Human ([4]; 6 h) [%]","Plasma Stability (% remaining, 6 h/24 h) Human ([4]; 24 h)",solubility at 48 h [5] [µM],EC50 [6] [µM],half-life at 1 μM [7] [min]
"CNC(=O)c1cccc(Cn2nc(C)c(NC(=O)c3ccc(COc4ccc(C(F)(F)F)cc4C)cc3)c2C)c1 [Compound D10, 3-((3,5-Dimethyl-4-(4-((2-methyl-4-(trifluoromethyl)phenoxy)-methyl)benzamido)-1H-pyrazol-1-yl)methyl)-N-methylbenzamide]",0.62,3.72,11.2,53,88,93%,98,100%,166 ± 2,4.8,53
"CC(=O)Nc1cccc(Cn2nc(C)c(NC(=O)c3ccc(COc4ccc(C(F)(F)F)cc4)cc3)c2C)c1 [Compound D11, N-(1-(3-Acetamidobenzyl)-3,5-dimethyl-1H-pyrazol-4-yl)-4-((4-(trifluoromethyl)phenoxy)methyl)benzamide]",0.87,,,7.4,2.1,0.1%,96,94%,,8.6,8.3
"CC(=O)Nc1cccc(Cn2nc(C)c(NC(=O)c3ccc(COc4ccc(C(F)(F)F)cc4C)cc3)c2C)c1 [Compound D12, N-(1-(3-Acetamidobenzyl)-3,5-dimethyl-1H-pyrazol-4-yl)-4-((2-methyl-4-(trifluoromethyl)phenoxy)methyl)benzamide]",1.1,,,9.7,1.6,0.1%,92,95%,,6.6,14
"CNC(=O)c1cccc(Cn2nc(C)c(NC(=O)c3ccc(COc4ccc(C(F)(F)F)cc4)cc3)c2C)n1 [Compound E1a, 6-((3,5-Dimethyl-4-(4-((4-(trifluoromethyl)phenoxy)methyl)-benzamido)-1H-pyrazol-1-yl)methyl)-N-methylpicolinamide]",0.48,24.5,21,65,,—/99%,,—/100%,,7.8,47
"CNC(=O)c1cccc(Cn2nc(C)c(NC(=O)c3ccc(COc4ccc(C(F)(F)F)cc4C)cc3)c2C)n1 [Compound E1b, 6-((3,5-Dimethyl-4-(4-((2-methyl-4-(trifluoromethyl)phenoxy)methyl)benzamido)-1H-pyrazol-1-yl)methyl)-N-methylpicolinamide]",6.3,3.58,7.17,75,,—/96%,,—/100%,,,47
"CNC(=O)c1cc(Cn2nc(C)c(NC(=O)c3ccc(COc4ccc(C(F)(F)F)cc4)cc3)c2C)ccn1 [Compound E2a, 4-((3,5-Dimethyl-4-(4-((4-(trifluoromethyl)phenoxy)methyl)benzamido)-1H-pyrazol-1-yl)methyl)-N-methylpicolinamide]",0.85,5.02,5.69,64,,—/91%,,—/98%,,8.3,112
"CNC(=O)c1cc(Cn2nc(C)c(NC(=O)c3ccc(COc4ccc(C(F)(F)F)cc4C)cc3)c2C)ccn1 [Compound E2b, 4-((3,5-Dimethyl-4-(4-((2-methyl-4-(trifluoromethyl)phenoxy)methyl)benzamido)-1H-pyrazol-1-yl)methyl)-N-methylpicolinamide]",0.33,8.34,5.96,89,,—/84%,,—/100%,211 ± 5,7.4,89
